Assay results taken from patent publication US9630977B2, “Cephalosporin derivatives and pharmaceutical compositions thereof” (Legochem Biosciences, Inc., priority 2011, dated 2017).
Converted amounts (≈) assume the structure as drawn.

Columns and labels:
K. pneumoniae β13 = test: In vitro antibacterial activity test (broth microdilution); format: cell-based; conditions: Klebsiella pneumoniae, K. pneumoniae β13; read-out: MIC90
In short: (§1)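 Susceptibility of clinical bacterial isolates is measured by CLSI broth microdilution. Final drug concentrations range 0.0626–128 ug/mL in 2.5% (V/V) DMSO; MIC90 recorded as lowest concentration blocking visible growth of 90% of organisms.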

P. aeruginosa 40 = test: as above; format: cell-based; conditions: Pseudomonas aeruginosa, 40, P. aeruginosa 40; read-out: MIC90
In short: as §1

A. baumannii 49 = test: as above; format: cell-based; conditions: Acinetobacter baumannii; A. baumannii 49; read-out: MIC90
In short: as §1

K. pneumoniae β9 = test: as above; format: cell-based; conditions: Klebsiella pneumoniae, K. pneumoniae β9; read-out: MIC90
In short: as §1

P. aeruginosa 37 = test: as above; format: cell-based; conditions: Pseudomonas aeruginosa, 37, P. aeruginosa 37; read-out: MIC90
In short: as §1

A. baumannii 46 = test: as above; format: cell-based; conditions: Acinetobacter baumannii; A. baumannii 46; read-out: MIC90
In short: as §1

[1] = tested on: A. calcoaceticus ATCC15473; test: as above; format: cell-based; conditions: Acinetobacter calcoaceticus; A. calcoaceticus ATCC15473; read-out: MIC90
In short: as §1

P. aeruginosa 1912E [2] = test: as above; format: cell-based; conditions: Pseudomonas aeruginosa, 1912E, read-out: MIC90
In short: as §1

K. pneumoniae β11 = test: as above; format: cell-based; conditions: Klebsiella pneumoniae; K. pneumoniae β11; read-out: MIC90
In short: as §1

K. pneumoniae 2011E = test: as above; format: cell-based; conditions: Klebsiella pneumoniae, 2011E, K. pneumoniae 2011E; read-out: MIC90
In short: as §1

A. baumannii 52 = test: as above; format: cell-based; conditions: Acinetobacter baumannii; A. baumannii 52; read-out: MIC90
In short: as §1

E. coli AG100 = test: as above; format: cell-based; conditions: Escherichia coli, AG100, E. coli AG100; read-out: MIC90
In short: as §1

K. pneumoniae β14 = test: as above; format: cell-based; conditions: Klebsiella pneumoniae, read-out: MIC90
In short: as §1

P. aeruginosa 43 = test: as above; format: cell-based; conditions: Pseudomonas aeruginosa; P. aeruginosa 43; read-out: MIC90
In short: as §1

M. catarrhalis 2524 = test: as above; format: cell-based; conditions: Moraxella catarrhalis; M. catarrhalis 2524; read-out: MIC90
In short: as §1

E. cloacae β19 = test: as above; format: cell-based; conditions: Enterobacter cloacae, read-out: MIC90
In short: as §1

K. pneumoniae β10 = test: as above; format: cell-based; conditions: Klebsiella pneumoniae; K. pneumoniae β10; read-out: MIC90
In short: as §1

E. coli β4 = test: as above; format: cell-based; conditions: Escherichia coli, read-out: MIC90
In short: as §1

P. aeruginosa 6065Y = test: as above; format: cell-based; conditions: Pseudomonas aeruginosa, read-out: MIC90
In short: as §1

[3] = tested on: K. pneumoniae (38 clinical isolates); test: Antibacterial activity on representative drug-resistance bacteria: number of clinical isolates per MIC value; format: cell-based; conditions: K. pneumomiae (N = 38)
Procedure: (§2) The in vitro antibacterial activity was evaluated by measuring MIC90 (ug/mL) of each of the compounds of Examples 1 to 68, which is defined as the lowest concentration of an antibiotic that will inhibit the visible growth of 90% of microorganisms after incubation as compared with a control group to which the antibiotic is not treated. MIC90 values were measured by the broth microdilution method developed by the Clinical and Laboratory Standards Institute (CLSI) (see CLSI M7-A5, Methods for Dilution Antimicrobial Susceptibility Test for Bacteria that Grow Aerobically-Fifth Edition (2000): CLSI, Villanova, Pa.).
(§3) Test compounds each (the cephalosporin derivative compounds prepared in Examples 1 to 68) were dissolved in DMSO at the concentration of 10,240 ug/mL, were diluted by two fold with DMSO, and then were diluted by twenty fold with sterilized distilled water. The final concentration in the antibacterial activity test was in the range of […] to 128 ug/mL, and the final concentration of DMSO used as an adjuvant was 2.5% (V/V).

[4] = tested on: A. baumannii (6 clinical isolates); test: as above; format: cell-based; conditions: A. baumanni (N = 6)
Procedure: as §2, §3

[5] = tested on: P. aeruginosa (16 clinical isolates); test: as above; format: cell-based; conditions: P. aeruginosa (N = 16)
Procedure: as §2, §3

P. aeruginosa 1912E [6] = test: In vivo efficacy, whole-body infected mouse model, Ceftazidime-sensitive bacteria; design: species or system ICR mouse; conditions: P. aeruginosa 1912E (2 × 10^6CFU/mouse); for Survival rate: four days
Procedure: (§4) Pharmaceutical efficacy of the cephalosporin derivative compounds according to the present invention was evaluated in a whole-body infected mouse model. Tables 3 and 4 show survival rate and ED50 values for the two compounds with excellent antibacterial activity with regard to an infected mouse by a drug-sensitive bacteria and a drug-resistant bacteria.
(§5) Test animals: 3 week old male ICR mouse, weight 18˜22 g; 5 mice/group.
(§6) Lab conditions: Temperature of 23±2° C.; humidity of 55±20%.
(§7) Administration method: Inducing whole-body infection by bacterial solution followed by subcutaneous injection (0.2 mL) after 1 hour and 4 hours.
(§8) Test method: Cultured bacteria were diluted with 0.9% NaCl to prepare a bacterial solution having a concentration that is 5 to 10 times of […]. 0.5 mL of bacterial solution was injected through abdominal cavity to induce whole-body infection. Test compounds were administered in four different amounts, which were designed considering in vitro MIC values of the test bacteria. After 1 hour and 4 hours, the four different amounts of the test compounds were subcutaneously administered. Survival rates were measured for four days and ED50 values were calculated according to the Probit method.

P. aeruginosa R1023 = test: In vivo efficacy, whole-body infected mouse model, Ceftazidime-resistant bacteria;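 for Survival rate: each column one dose of 5 10 20 or 40 mg/kg given sc at 1 h and 4 h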; design: species or system ICR mouse; conditions: for Survival rate: subcutaneous 1 h and 4 h after infection, P. aeruginosa R1023 (2 × 10^6 CFU/mouse), four days
Procedure: as §4, §5, §6, §7, §8

19 clinical isolates = test: In vitro antibacterial activity test, panel of 19 clinical isolates as a whole; format: cell-based; conditions: effect of a siderophore group, Table 1
Procedure: To evaluate antibacterial activity of each of the compounds of Examples 1 to 68, in vitro antibacterial activity test was performed.
as §2
In vitro antibacterial activity was measured with respect to the following 19 clinical isolates: M. catarrhalis; P. aeruginosa (5 strains); K. pneumoniae (6 strains); A. baumannii (3 strains); E. coli (2 strains); A. calcoaceticus; and E. cloacae.
as §3

In the case of `CC(C)(O/N=C(\C(=O)N[C@@H]1C(=O)N2C(C(=O)[O-])=C(C[n+]3ccccc3)CS[C@H]12)c1csc(N)n1)C(=O)O` [Ceftazidime, reference compound], the MIC90 (K. pneumoniae β13) is reported as 32 µg/mL (≈ 58.5 µM), the MIC90 (P. aeruginosa 40) is reported as 4 µg/mL (≈ 7.32 µM) and the MIC90 (A. baumannii 49) is reported as over 64 µg/mL. It also gave an MIC90 (K. pneumoniae β9) of 16 µg/mL (≈ 29.3 µM), an MIC90 (P. aeruginosa 37) of 64 µg/mL (≈ 117 µM) and an MIC90 (A. baumannii 46) of 4 µg/mL (≈ 7.32 µM). It also gave an MIC90 [1] of 1 µg/mL (≈ 1.83 µM), an MIC90 (P. aeruginosa 1912E [2]) of 1 µg/mL (≈ 1.83 µM) and an MIC90 (K. pneumoniae β11) of 64 µg/mL (≈ 117 µM). The MIC90 (K. pneumoniae 2011E) was 1 µg/mL (≈ 1.83 µM), the MIC90 (A. baumannii 52) was over 64 µg/mL and the MIC90 (E. coli AG100) was 0.5 µg/mL (≈ 0.915 µM). The MIC90 (K. pneumoniae β14) was 64 µg/mL (≈ 117 µM), the MIC90 (P. aeruginosa 43) was 16 µg/mL (≈ 29.3 µM) and the MIC90 (M. catarrhalis 2524) was under 0.0625 µg/mL. It also gave an MIC90 (E. cloacae β19) of 32 µg/mL (≈ 58.5 µM), an MIC90 (K. pneumoniae β10) of 32 µg/mL (≈ 58.5 µM) and an MIC90 (E. coli β4) of 8 µg/mL (≈ 14.6 µM). For the same molecule, the MIC90 (P. aeruginosa 6065Y) was 32 µg/mL (≈ 58.5 µM), the “number of clinical isolates that showed the respective MIC value” (from here on “number”) ([3]; MIC 0.5 ug/mL) was 2 and the “number” value ([3]; MIC 4 ug/mL) was 1. The “number” value ([3]; MIC 16 ug/mL) was 3, the “number” value ([3]; MIC >16 ug/mL) was 32 and the “number” value ([4]; MIC >16 ug/mL) was 6. The “number” value ([5]; MIC 2 ug/mL) was 1, the “number” value ([5]; MIC 4 ug/mL) was 2 and the “number” value ([5]; MIC 8 ug/mL) was 1. For the same molecule, the “number” value ([5]; MIC 16 ug/mL) was 1, the “number” value ([5]; MIC >16 ug/mL) was 11 and the Survival rate (P. aeruginosa 1912E [6]; 2.5 mg/kg subcutaneous after 1 hour and 4 hours) was 40%. It also gave a Survival rate (P. aeruginosa 1912E [6]; 5 mg/kg subcutaneous after 1 hour and 4 hours) of 80%, a Survival rate (P. aeruginosa 1912E [6]; 10 mg/kg subcutaneous after 1 hour and 4 hours) of 100% and a Survival rate (P. aeruginosa 1912E [6]; 20 mg/kg subcutaneous after 1 hour and 4 hours) of 100%. For the same molecule, the ED50 (P. aeruginosa 1912E [6]; Pseudomonas aeruginosa, sc, subcutaneous, Probit method) was 2.5 mg/kg, the ED50 (P. aeruginosa R1023; Pseudomonas aeruginosa, sc, Probit method, subcutaneous, mouse infected by Ceftazidime-resistant P. aeruginosa R1023) was 640 mg/kg and the Survival rate (P. aeruginosa R1023; administered amount 5 mg/kg) was 0%. It also gave a Survival rate (P. aeruginosa R1023; administered amount 10 mg/kg) of 20%, a Survival rate (P. aeruginosa R1023; administered amount 20 mg/kg) of 20% and a Survival rate (P. aeruginosa R1023; administered amount 40 mg/kg) of 20%.
`CC(C)(O/N=C(\C(=O)N[C@@H]1C(=O)N2C(C(=O)[O-])=C(/C=C/C[n+]3cnc(N)c(NCCNC(=O)c4cc(=O)c(O)cn4O)c3)CSC12)c1nc(N)sc1Cl)C(=O)O` (stereo partly drawn) [Compound 26] was tested, and the “antibacterial activity (in words)” value (19 clinical isolates) was “significantly improved”, the MIC90 (K. pneumoniae β13) was under 0.0625 µg/mL and the MIC90 (P. aeruginosa 40) was under 0.0625 µg/mL. It also gave an MIC90 (A. baumannii 49) of 16 µg/mL (≈ 19.2 µM), an MIC90 (K. pneumoniae β9) of 0.125 µg/mL (≈ 0.15 µM) and an MIC90 (P. aeruginosa 37) of under 0.0625 µg/mL. The MIC90 (A. baumannii 46) was 2 µg/mL (≈ 2.4 µM), the MIC90 [1] was 0.5 µg/mL (≈ 0.599 µM) and the MIC90 (P. aeruginosa 1912E [2]) was 0.25 µg/mL (≈ 0.3 µM). It also gave an MIC90 (K. pneumoniae β11) of 0.5 µg/mL (≈ 0.599 µM), an MIC90 (K. pneumoniae 2011E) of 0.5 µg/mL (≈ 0.599 µM) and an MIC90 (A. baumannii 52) of 2 µg/mL (≈ 2.4 µM). The MIC90 (E. coli AG100) was under 0.0625 µg/mL, the MIC90 (K. pneumoniae β14) was 4 µg/mL (≈ 4.79 µM) and the MIC90 (P. aeruginosa 43) was 0.25 µg/mL (≈ 0.3 µM). It also gave an MIC90 (M. catarrhalis 2524) of under 0.0625 µg/mL, an MIC90 (E. cloacae β19) of 0.125 µg/mL (≈ 0.15 µM) and an MIC90 (K. pneumoniae β10) of under 0.0625 µg/mL. The MIC90 (E. coli β4) was under 0.0625 µg/mL, the MIC90 (P. aeruginosa 6065Y) was 0.5 µg/mL (≈ 0.599 µM) and the “number” value ([3]; MIC 0.25 ug/mL) was 1. The “number” value ([3]; MIC 0.5 ug/mL) was 2, the “number” value ([3]; MIC 1 ug/mL) was 3 and the “number” value ([3]; MIC 2 ug/mL) was 1. The “number” value ([3]; MIC 8 ug/mL) was 4, the “number” value ([3]; MIC 16 ug/mL) was 4 and the “number” value ([3]; MIC <0.0625 ug/mL) was 1. The “number” value ([3]; MIC >16 ug/mL) was 22, the “number” value ([4]; MIC 0.5 ug/mL) was 1 and the “number” value ([4]; MIC 8 ug/mL) was 2. The “number” value ([4]; MIC >16 ug/mL) was 3, the “number” value ([5]; MIC 0.0625 ug/mL) was 1 and the “number” value ([5]; MIC 0.25 ug/mL) was 2. The “number” value ([5]; MIC 0.5 ug/mL) was 3, the “number” value ([5]; MIC 1 ug/mL) was 1 and the “number” value ([5]; MIC 2 ug/mL) was 2. For the same molecule, the “number” value ([5]; MIC 4 ug/mL) was 3, the “number” value ([5]; MIC 8 ug/mL) was 1 and the “number” value ([5]; MIC >16 ug/mL) was 3.
